Among the data in article PMC4355085 (Cancer discovery, 2014) are IC50 values, retold here.

Each structure is given as a SMILES string.

The target in the assay is EphA2 (Homo sapiens, UniProt P29317). Briefly: cell-free kinase assay. The class given is biochemical.

One may read the IC50 as the point on the concentration scale where inhibition reaches its midpoint. Read a high IC50 as weaker potency in that assay.

EphA2, sequence (P29317 24-976): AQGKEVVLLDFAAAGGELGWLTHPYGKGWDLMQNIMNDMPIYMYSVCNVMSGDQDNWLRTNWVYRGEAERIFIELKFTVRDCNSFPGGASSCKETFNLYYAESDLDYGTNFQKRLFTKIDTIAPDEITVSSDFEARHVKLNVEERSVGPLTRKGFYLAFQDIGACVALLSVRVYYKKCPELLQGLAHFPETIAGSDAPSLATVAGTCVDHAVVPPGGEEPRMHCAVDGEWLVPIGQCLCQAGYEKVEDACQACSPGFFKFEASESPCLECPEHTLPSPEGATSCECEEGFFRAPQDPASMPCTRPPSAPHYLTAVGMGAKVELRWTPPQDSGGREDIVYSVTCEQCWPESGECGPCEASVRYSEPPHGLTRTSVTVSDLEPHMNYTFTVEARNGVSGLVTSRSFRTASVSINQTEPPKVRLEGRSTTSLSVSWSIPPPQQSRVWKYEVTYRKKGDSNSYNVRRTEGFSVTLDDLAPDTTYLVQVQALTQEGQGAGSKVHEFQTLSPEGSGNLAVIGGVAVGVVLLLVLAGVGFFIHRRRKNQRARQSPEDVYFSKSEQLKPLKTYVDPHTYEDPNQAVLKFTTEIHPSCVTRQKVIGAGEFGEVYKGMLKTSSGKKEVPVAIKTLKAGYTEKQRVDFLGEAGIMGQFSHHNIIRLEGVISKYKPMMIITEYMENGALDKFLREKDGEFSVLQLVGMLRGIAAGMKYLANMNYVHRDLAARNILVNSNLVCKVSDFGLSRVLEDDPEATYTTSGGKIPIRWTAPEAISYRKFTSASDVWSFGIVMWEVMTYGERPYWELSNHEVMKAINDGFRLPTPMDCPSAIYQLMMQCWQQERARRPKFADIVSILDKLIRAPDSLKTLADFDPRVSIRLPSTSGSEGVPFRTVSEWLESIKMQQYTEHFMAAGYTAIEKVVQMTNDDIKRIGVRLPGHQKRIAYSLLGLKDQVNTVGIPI

Compound `CCN1CCN(Cc2ccc(NC(=O)c3ccc(C)c(/C=C/c4cnc5[nH]ccc5c4OC)c3)cc2C(F)(F)F)CC1` [HG-6-64-1] registered an IC50 of 77.1 nM.
